In patent US20060166953A1, “Ciclesonide-containing sterile aqueous suspension” (priority 2002, published 2006):

Assay: Chemical stability of drug in the aqueous suspension against autoclaving (recovery rate by HPLC)
Format: physicochemical
Protocol: Comparison of Chemical Stability of Drug in the Aqueous Suspension Against Autoclaving
The suspension of Example 1 was put into a 500 mL glass container with a screw cap and sterilized by autoclaving at 121 degrees C. for 20 minutes. Subsequently, after mixing the suspension in the glass container, the ciclesonide concentration was quantified by HPLC.
The recovery rate of ciclesonide after the autoclaving was calculated by taking the ciclesonide concentration before the autoclaving to be 100%. The recovery rates of budesonide and beclomethasone dipropionate after the autoclaving were calculated by the same method.

Degradation by autoclaving procedure	Structure (SMILES)
degraded	CCCC1O[C@@H]2C[C@H]3[C@@H]4CCC5=CC(=O)C=C[C@]5(C)[C@H]4[C@@H](O)C[C@]3(C)[C@]2(C(=O)CO)O1 (stereo partly drawn) [budesonide, 16α,17-[(1RS)-butylidene-bis(oxy)]-11β,21-dihydroxypregna-1,4-diene-3,20-dione]
not degraded	CC(C)C(=O)OCC(=O)[C@@]12O[C@H](C3CCCCC3)O[C@@H]1C[C@H]1[C@@H]3CCC4=CC(=O)C=C[C@]4(C)[C@H]3[C@@H](O)C[C@@]12C [ciclesonide, (11β,16α)-16,17-[cyclohexylmethylenebis(oxy)]-11-hydroxy-21-(2-methyl-1-oxopropoxy)pregna-1,4,-diene-3,20-dione]
